Laboratory results from patent US10808018B2, “Erythropoietin-derived peptides and methods of protecting cells from oxidative damage induced by reactive oxygen species” (SYLUS CO., LTD., priority 2017, dated 2020).
Peptide text beside a SMILES is read from it.

Target: T1, Soluble mouse EPOR chimera proteins (erythropoietin receptor) (Mus musculus, UniProt P14753)
T1 construct: Soluble mouse EPOR chimera proteins; purchased R&D Systems
T1 sequence (P14753 25-249 limits assumed): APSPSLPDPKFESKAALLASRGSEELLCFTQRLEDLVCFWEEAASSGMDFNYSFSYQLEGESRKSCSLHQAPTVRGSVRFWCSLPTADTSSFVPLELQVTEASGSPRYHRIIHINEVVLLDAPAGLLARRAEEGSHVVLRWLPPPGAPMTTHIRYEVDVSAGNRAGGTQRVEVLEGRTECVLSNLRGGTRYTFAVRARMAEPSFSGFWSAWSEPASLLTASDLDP
Test: Surface plasmon resonance (SPR) binding affinity to erythropoietin receptor
Conditions: for Ka: association rate
Excerpt: The SPR technique is to measure interactions between biomolecules in real-time by using an optical principle without specific labeling, and is a system analyzing affinity between two molecules and kinetics, i.e., an association rate (Ka) and a dissociation rate (Kd). In detail, real-time SPR analysis may be performed using Reichert SPR Biosensor SR […] instrument (Reichert Inc., NY, USA). Soluble mouse EPOR chimera proteins (R&D Systems, Minneapolis, Minn., USA) were covalently linked to a carboxymethylated dextran matrix-coated chip (BR-1005-39, Pharmacia Biosensor AB) by an amine coupling procedure using an amine coupling kit (BR-1000-50, GE Healthcare, USA) in accordance with manufacturer's instructions. Each 5 pM, 2.5 pM, and 1.25 pM of the peptide samples of the present disclosure and scrambled peptides were applied at a flow rate of 5 μl/minute, and the experiments were independently performed in duplicate. For signal normalization, DMSO was applied at a flow rate of 5 μl/minute. After each binding cycle, the sensor chip was regenerated by injecting 25 mM of acetic acid at a flow rate of 20 μl/minute.

Ka (Table 8)	dissociation rate constant (koff) (Table 8)	Ka (Table 9)	dissociation rate constant (koff) (Table 9)	Kd (Table 8)	Compound
5.55 × 10^3	5.9 × 10^−3				CSCC[C@H](NC(=O)[C@@H](NC(=O)[C@H](Cc1c[nH]cn1)NC(=O)[C@H](CO)NC(=O)[C@H](CC(C)C)NC(=O)[C@H](CC(C)C)NC(=O)CNC(=O)[C@H](CO)NC(=O)[C@@H](NC(=O)[C@H](CCCNC(=N)N)NC(=O)[C@H](CCCCN)NC(=O)[C@H](CC(C)C)NC(=O)[C@@H](NC(=O)[C@H](Cc1c[nH]cn1)NC(=O)[C@H](CC(C)C)NC(=O)[C@H](CCC(N)=O)NC(=O)[C@@H](N)CC(C)C)C(C)C)C(C)C)[C@@H](C)O)C(=O)N[C@@H](CC(C)C)C(=O)N[C@@H](CC(C)C)C(=O)N[C@@H](CCCCN)C(=O)N[C@@H](C)C(=O)N[C@@H](CC(C)C)C(=O)NCC(=O)O [ML1-1] (H-LQLHVLKRVSGLLSHTMLLKALG-OH; N-terminus and C-terminus assumed)
		1745.7	0.2617		CC(C)C[C@H](NC(=O)CNC(=O)[C@H](CO)NC(=O)[C@@H](NC(=O)[C@H](C)NC(=O)[C@H](CCCCN)NC(=O)[C@H](CC(=O)O)NC(=O)[C@@H](NC(=O)[C@H](CCC(=O)O)NC(=O)[C@H](CC(C)C)NC(=O)[C@H](CC(=O)O)NC(=O)[C@@H](N)CC(C)C)C(C)C)C(C)C)C(=O)N[C@@H](CCCNC(=N)N)C(=O)N[C@@H](CO)C(=O)N[C@@H](CC(C)C)C(=O)N[C@H](C(=O)N[C@H](C(=O)N[C@@H](CC(C)C)C(=O)N[C@@H](CC(C)C)C(=O)N[C@@H](CCCNC(=N)N)C(=O)N[C@@H](C)C(=O)N[C@@H](CC(C)C)C(=O)NCC(=O)O)[C@@H](C)O)[C@@H](C)O [ML1-C1] (H-LDLEVDKAVSGLRSLTTLLRALG-OH; N-terminus and C-terminus assumed)
		1.59E+03	0.01876		CC(C)C[C@H](NC(=O)CNC(=O)[C@H](CO)NC(=O)[C@@H](NC(=O)[C@H](CCCNC(=N)N)NC(=O)[C@H](CCCCN)NC(=O)[C@H](CC(=O)O)NC(=O)[C@@H](NC(=O)[C@H](Cc1c[nH]cn1)NC(=O)[C@H](CCCNC(=N)N)NC(=O)[C@H](CCC(N)=O)NC(=O)[C@@H](N)CC(C)C)C(C)C)C(C)C)C(=O)N[C@@H](CCCNC(=N)N)C(=O)N[C@@H](CO)C(=O)N[C@@H](CC(C)C)C(=O)N[C@H](C(=O)N[C@H](C(=O)N[C@@H](CC(C)C)C(=O)N[C@@H](CC(C)C)C(=O)N[C@@H](CCCNC(=N)N)C(=O)N[C@@H](C)C(=O)N[C@@H](CC(C)C)C(=O)NCC(=O)O)[C@@H](C)O)[C@@H](C)O [ML1-C2] (H-LQRHVDKRVSGLRSLTTLLRALG-OH; N-terminus and C-terminus assumed)
		1104.9	0.01086		CC(C)C[C@H](NC(=O)CNC(=O)[C@H](CCCCN)NC(=O)[C@@H](NC(=O)[C@H](CCCNC(=N)N)NC(=O)[C@H](CCCCN)NC(=O)[C@H](CCCCN)NC(=O)[C@@H](NC(=O)[C@H](Cc1c[nH]cn1)NC(=O)[C@H](CCCNC(=N)N)NC(=O)[C@H](CCC(N)=O)NC(=O)[C@@H](N)CC(C)C)C(C)C)C(C)C)C(=O)N[C@@H](CCCCN)C(=O)N[C@@H](CO)C(=O)N[C@@H](CC(C)C)C(=O)N[C@H](C(=O)N[C@H](C(=O)N[C@@H](CC(C)C)C(=O)N[C@@H](CC(C)C)C(=O)N[C@@H](CCCNC(=N)N)C(=O)N[C@@H](C)C(=O)N[C@@H](CC(C)C)C(=O)NCC(=O)O)[C@@H](C)O)[C@@H](C)O [ML1-C3] (H-LQRHVKKRVKGLKSLTTLLRALG-OH; N-terminus and C-terminus assumed)
		1.01E+03	7.94E−03		CC(C)C[C@H](NC(=O)CNC(=O)[C@H](CO)NC(=O)[C@@H](NC(=O)[C@H](C)NC(=O)[C@H](CCCCN)NC(=O)[C@H](CC(C)C)NC(=O)[C@@H](NC(=O)[C@H](Cc1c[nH]cn1)NC(=O)[C@H](CC(C)C)NC(=O)[C@H](CCC(N)=O)NC(=O)[C@@H](N)CC(C)C)C(C)C)C(C)C)C(=O)N[C@@H](CC(C)C)C(=O)N[C@H](C(=O)N[C@@H](Cc1c[nH]cn1)C(=O)N[C@H](C(=O)N[C@H](C(=O)N[C@@H](CC(C)C)C(=O)N[C@@H](CC(C)C)C(=O)N[C@@H](CCCCN)C(=O)N[C@@H](C)C(=O)N[C@@H](CC(C)C)C(=O)NCC(=O)O)[C@@H](C)O)[C@@H](C)O)[C@@H](C)O [ML1-H1] (H-LQLHVLKAVSGLLTHTTLLKALG-OH; N-terminus and C-terminus assumed)
		3434.3	1.05E−03		CC[C@H](C)[C@H](NC(=O)[C@H](CCSC)NC(=O)[C@@H](NC(=O)[C@H](CC(C)C)NC(=O)[C@@H](NC(=O)[C@H](CC(C)C)NC(=O)[C@H](CC(C)C)NC(=O)CNC(=O)[C@H](CO)NC(=O)[C@@H](NC(=O)[C@H](C)NC(=O)[C@H](CCCCN)NC(=O)[C@H](CC(C)C)NC(=O)[C@@H](NC(=O)[C@H](Cc1c[nH]cn1)NC(=O)[C@H](CC(C)C)NC(=O)[C@H](CCC(N)=O)NC(=O)[C@@H](N)CC(C)C)C(C)C)C(C)C)[C@@H](C)O)[C@@H](C)O)C(=O)N[C@@H](CCCNC(=N)N)C(=O)N[C@@H](CCCNC(=N)N)C(=O)N[C@@H](C)C(=O)N[C@@H](CC(C)C)C(=O)NCC(=O)O [ML1-H2] (H-LQLHVLKAVSGLLTLTMIRRALG-OH; N-terminus and C-terminus assumed)
		4157.6	4.77E−03		CC[C@H](C)[C@H](NC(=O)[C@H](CCSC)NC(=O)[C@H](C)NC(=O)[C@H](CC(C)C)NC(=O)[C@@H](NC(=O)[C@H](CCCNC(=N)N)NC(=O)[C@H](CC(C)C)NC(=O)CNC(=O)[C@H](C)NC(=O)[C@@H](NC(=O)[C@H](C)NC(=O)[C@H](CCCCN)NC(=O)[C@H](CC(C)C)NC(=O)[C@@H](NC(=O)[C@H](Cc1c[nH]cn1)NC(=O)[C@H](CC(C)C)NC(=O)[C@H](CCC(N)=O)NC(=O)[C@@H](N)CC(C)C)C(C)C)C(C)C)[C@@H](C)O)C(=O)N[C@@H](CCCNC(=N)N)C(=O)N[C@@H](CCCNC(=N)N)C(=O)N[C@@H](C)C(=O)N[C@@H](CC(C)C)C(=O)N[C@@H](C)C(=O)O [ML1-H3] (H-LQLHVLKAVAGLRTLAMIRRALA-OH; N-terminus and C-terminus assumed)
1.311 × 10^3	8.5 × 10^−3	1310.8	8.47E−03	6.46 µM	CC(C)C[C@H](NC(=O)CNC(=O)[C@H](CO)NC(=O)[C@@H](NC(=O)[C@H](C)NC(=O)[C@H](CCCCN)NC(=O)[C@H](CC(=O)O)NC(=O)[C@@H](NC(=O)[C@H](Cc1c[nH]cn1)NC(=O)[C@H](CC(C)C)NC(=O)[C@H](CCC(N)=O)NC(=O)[C@@H](N)CC(C)C)C(C)C)C(C)C)C(=O)N[C@@H](CCCNC(=N)N)C(=O)N[C@@H](CO)C(=O)N[C@@H](CC(C)C)C(=O)N[C@H](C(=O)N[C@H](C(=O)N[C@@H](CC(C)C)C(=O)N[C@@H](CC(C)C)C(=O)N[C@@H](CCCNC(=N)N)C(=O)N[C@@H](C)C(=O)N[C@@H](CC(C)C)C(=O)NCC(=O)O)[C@@H](C)O)[C@@H](C)O [ML1] (H-LQLHVDKAVSGLRSLTTLLRALG-OH; N-terminus and C-terminus assumed)
